Conditions: 323.15 K, Liquid, Vibrating tube method

CCCCCCCC(=O)OCC(COC(=O)CCCCCCC)(COC(=O)CCCCCCC)COC(=O)CCCCCCC [pentaerythritol tetraoctanoate]
Conditions | mass density [kg/m3]
7680.3 kPa | 945.8
7700.7 kPa | 945.8
7720.9 kPa | 945.7
7748.8 kPa | 945.9
7769.4 kPa | 945.7
7790.4 kPa | 945.9
7811.3 kPa | 946
7832.2 kPa | 945.9
7857.7 kPa | 945.9
7878.8 kPa | 945.8
7900.5 kPa | 945.9
7922.1 kPa | 946
7947.7 kPa | 946
7968.9 kPa | 945.8
7990.6 kPa | 946
8017 kPa | 946
8039.8 kPa | 946
8061.6 kPa | 946.2
8084.3 kPa | 946.1
8107.1 kPa | 946.1
8134 kPa | 946.1
8156.6 kPa | 946
8179.4 kPa | 946.1
8206.5 kPa | 946
8229.4 kPa | 946.2
8252.6 kPa | 946.2
8275.8 kPa | 946.2
8303.6 kPa | 946.2
8327.1 kPa | 946.2
8355.7 kPa | 946.2
8379.5 kPa | 946.3
8404.2 kPa | 946.3
8428.3 kPa | 946.3
8452.5 kPa | 946.3
8482 kPa | 946.4
8506.8 kPa | 946.2
8531.5 kPa | 946.4
8560.6 kPa | 946.4
8585.3 kPa | 946.5
8610.8 kPa | 946.4
8640.7 kPa | 946.4
8666 kPa | 946.4
8691.5 kPa | 946.4
8722.7 kPa | 946.4
8748.4 kPa | 946.5
8774.8 kPa | 946.4
8806.4 kPa | 946.5
8832.8 kPa | 946.4
8859.7 kPa | 946.6
8886 kPa | 946.5
8918.8 kPa | 946.5
8945.9 kPa | 946.6
8972.8 kPa | 946.7
9006 kPa | 946.7
9034.1 kPa | 946.6
9062.8 kPa | 946.7
9092.9 kPa | 946.7
9121.3 kPa | 946.8
9155.1 kPa | 946.7
9183.5 kPa | 946.9
9212.7 kPa | 946.8
9247.8 kPa | 946.8
9276.8 kPa | 946.9
9311.6 kPa | 946.9
9341.2 kPa | 946.9
9371.1 kPa | 946.9
9401 kPa | 946.9
9437.9 kPa | 946.9
9469.8 kPa | 947
9503.2 kPa | 946.9
9534 kPa | 947.1
9570.9 kPa | 946.9
9602.4 kPa | 947
9633.9 kPa | 947
9665.6 kPa | 947.2
9704.2 kPa | 947.1
9736 kPa | 947.1
9774.4 kPa | 947.2
9806.9 kPa | 947.2
9834 kPa | 947.1
9860.5 kPa | 947.3
9901 kPa | 947.3
9949.2 kPa | 947.4
9984 kPa | 947.3
10026 kPa | 947.2
10059 kPa | 947.3
10090 kPa | 947.3
10128 kPa | 947.3
10160 kPa | 947.4
10192 kPa | 947.5
10231 kPa | 947.6
10264 kPa | 947.5
10297 kPa | 947.6
10337 kPa | 947.5
10372 kPa | 947.6
10405 kPa | 947.5
10435 kPa | 947.6
10467 kPa | 947.6
10494 kPa | 947.6
10520 kPa | 947.7
10553 kPa | 947.7
10580 kPa | 947.7
10608 kPa | 947.6
10643 kPa | 947.8
10672 kPa | 947.8
10695 kPa | 947.7
10719 kPa | 947.8
10739 kPa | 947.8
10759 kPa | 947.6
10779 kPa | 947.8
10802 kPa | 947.8
10822 kPa | 947.8
10847 kPa | 947.8
10867 kPa | 947.8
10887 kPa | 948
10911 kPa | 947.9
10932 kPa | 947.8
10948 kPa | 947.9
10977 kPa | 947.9
10997 kPa | 948
11019 kPa | 948.1
11040 kPa | 948.1
11065 kPa | 948
11086 kPa | 948
11111 kPa | 948
11132 kPa | 948.1
11153 kPa | 948.1
11175 kPa | 948.1
11200 kPa | 948.1
11222 kPa | 948.1
11248 kPa | 948.1
11270 kPa | 948.1
11292 kPa | 948.1
11319 kPa | 948.1
11341 kPa | 948.1
11362 kPa | 948.1
11384 kPa | 948.3
11411 kPa | 948.3
11433 kPa | 948.2
11460 kPa | 948.2
11483 kPa | 948.3
11506 kPa | 948.3
11533 kPa | 948.3
11555 kPa | 948.4
11579 kPa | 948.2
11607 kPa | 948.3
11626 kPa | 948.3
11654 kPa | 948.4
11678 kPa | 948.2
11701 kPa | 948.4
11725 kPa | 948.5
11744 kPa | 948.5
11768 kPa | 948.4
11792 kPa | 948.5
11831 kPa | 948.4
11855 kPa | 948.5
11880 kPa | 948.5
11909 kPa | 948.5
11935 kPa | 948.6
11961 kPa | 948.6
11986 kPa | 948.6
12010 kPa | 948.7
12041 kPa | 948.6
12065 kPa | 948.7
12095 kPa | 948.6
12120 kPa | 948.8
12146 kPa | 948.6
12176 kPa | 948.6
12202 kPa | 948.7
12228 kPa | 948.6
12255 kPa | 948.7
12286 kPa | 948.8
12313 kPa | 948.8
12339 kPa | 948.9
12456 kPa | 948.9
12482 kPa | 948.9
12510 kPa | 948.9
12537 kPa | 948.9
12570 kPa | 949
12598 kPa | 948.9
12626 kPa | 949
12660 kPa | 949
12688 kPa | 948.9
12716 kPa | 949
12744 kPa | 949
12777 kPa | 949
12805 kPa | 949.1
12839 kPa | 949
12868 kPa | 949.1
12897 kPa | 949.2
12932 kPa | 949.2
12961 kPa | 949.2
12990 kPa | 949.1
13026 kPa | 949.2
13056 kPa | 949.3
13080 kPa | 949.2
13104 kPa | 949.2
13134 kPa | 949.3
13170 kPa | 949.2
13212 kPa | 949.4
13248 kPa | 949.4
13279 kPa | 949.3
13310 kPa | 949.4
13347 kPa | 949.3
13378 kPa | 949.4
13409 kPa | 949.6
13447 kPa | 949.6
13479 kPa | 949.6
13511 kPa | 949.5
13543 kPa | 949.5
13581 kPa | 949.7
13614 kPa | 949.7
13652 kPa | 949.6
13685 kPa | 949.7
13717 kPa | 949.6
13756 kPa | 949.7
13790 kPa | 949.6
13823 kPa | 949.7
13863 kPa | 949.7
13897 kPa | 949.9
13932 kPa | 949.7
13965 kPa | 949.8
14007 kPa | 949.9
14041 kPa | 949.7
14076 kPa | 949.9
14118 kPa | 950
14152 kPa | 949.9
14187 kPa | 950
14230 kPa | 949.9
14266 kPa | 950
14301 kPa | 950.1
14345 kPa | 950.1
14376 kPa | 950.2
14414 kPa | 950.2
14452 kPa | 950.1
14505 kPa | 950.1
14544 kPa | 950.2
14573 kPa | 950.2
14617 kPa | 950.1
14647 kPa | 950.2
14671 kPa | 950.2
14707 kPa | 950.5
14738 kPa | 950.3
14780 kPa | 950.3
14812 kPa | 950.5
14846 kPa | 950.5
14877 kPa | 950.3
14909 kPa | 950.4
14947 kPa | 950.5
14979 kPa | 950.4
15012 kPa | 950.5
15052 kPa | 950.5
15085 kPa | 950.5
15114 kPa | 950.5
15143 kPa | 950.5
15167 kPa | 950.6
15191 kPa | 950.6
15220 kPa | 950.7
15246 kPa | 950.5
15270 kPa | 950.6
15299 kPa | 950.6
15324 kPa | 950.7
15350 kPa | 950.7
15374 kPa | 950.8
15404 kPa | 950.8
15430 kPa | 950.7
15454 kPa | 950.8
15485 kPa | 950.7
15510 kPa | 950.9
15541 kPa | 950.8
15567 kPa | 950.8
15594 kPa | 950.8
15619 kPa | 950.8
15650 kPa | 950.8
15677 kPa | 950.9
15702 kPa | 950.9
15734 kPa | 950.9
15761 kPa | 950.9
15787 kPa | 950.9
15818 kPa | 951
15845 kPa | 951.2
15872 kPa | 951
15903 kPa | 951.1
15931 kPa | 951.1
15954 kPa | 951
15980 kPa | 951.1
16008 kPa | 951.1
16046 kPa | 951.2
16073 kPa | 951.1
16106 kPa | 951.3
16134 kPa | 951.1
16161 kPa | 951.3
16194 kPa | 951.1
16222 kPa | 951.3
16245 kPa | 951.2
16273 kPa | 951.4

— the NIST ThermoML archive (doi:10.1021/je060271a)
